Like-named read-outs stand apart in the source and are kept apart here.
Tests used:
[1] = biological target: recombinant GluN1/GluN2B receptors; conditions: recombinant GluN1/GluN2B in X. laevis oocytes, electrophysiology; cited from earlier work
[2] = biological target: native GluN2B‐containing NMDA receptors (Gallus gallus, UniProt F1NMB0+Q4KXT1); test: Calcium influx measurement (Fura-2) in E10 chicken embryo forebrain cell culture at DIV1, induced with NMDA and glycine; assay type: cell-based, chicken (Gallus gallus); conditions: for EC50: primary cultures from chicken embryo forebrain (E10), read-out: EC50, inhibition of calcium influx; for Emax: read-out: calcium influx blocked
Description: The eggs were submerged in crushed ice for 7 minutes to anesthetize the embryos before decapitation. The forebrain was surgically removed, and the meninges were discarded. The tissue was homogenized by chopping with a scalpel before trypsination in buffered solutions as previously described.30, 31 Cells were suspended in DMEM supplemented with 1% N‐2, 100 U/mL penicillin and 0.1 mg/mL streptomycin (Pen‐Strep), 10% fetal bovine serum (FBS), and 0.75% GlutaMAX™. Cells were seeded (1.7 × 10^6 cells/mL) on 35 mm Petri dishes or in 96‐well plates (Corning® CellBIND® 96 well plates; Merck) precoated with poly‐L‐lysine, and incubated at 37°C, with 5% CO2. These cultures contain an abundance of functional GluN2B receptors on DIV1 (A. Ring, pers. commun.).
Fura‐2 fluorescence was measured using CLARIOstar® plate reader (BMG Labtech, Germany). Intracellular Ca^2+ changes were expressed as changes in 340/380 nm fluorescence emission ratio. The wash buffer was then carefully replaced with test compound (20 nmol/L to 10 μmol/L) in standard buffer (n = 4 per concentration, two compounds per 96‐well plate). NMDA receptor‐mediated Ca^2+ influx was induced by NMDA (0.2 mmol/L) and glycine (0.1 mmol/L) in each well. The resulting rise in intracellular Ca^2+ was expressed as a change in the 340/380 emission ratio by subtracting the initial Ca^2+ level from the NMDA stimulated Ca^2+ responses. […] Inhibition curves for each compound were established by dose response experiments (n ≥ 5). For Ro 04‐5595, four representative IC50 values were chosen to make Figure 2A, while 13 experiments around the median were chosen for Figure 2C.

[3] = biological target: recombinant GluN1/GluN2B receptors; design: method as in PMID 22197913; conditions: recombinant GluN1/GluN2B in X. laevis oocytes, electrophysiology; cited from earlier work
[4] = E10 chicken forebrain cell culture at DIV 1, NMDA 200 and glycine 100 μmol/L, Fura-2, read-out: IC50 Chicken (present work)
[5] = maximal block by GluN2B-specific allosteric antagonists, chicken forebrain culture

native GluN2B‐containing NMDA receptors, sequence (F1NMB0 entry or part of it, other chains not shown): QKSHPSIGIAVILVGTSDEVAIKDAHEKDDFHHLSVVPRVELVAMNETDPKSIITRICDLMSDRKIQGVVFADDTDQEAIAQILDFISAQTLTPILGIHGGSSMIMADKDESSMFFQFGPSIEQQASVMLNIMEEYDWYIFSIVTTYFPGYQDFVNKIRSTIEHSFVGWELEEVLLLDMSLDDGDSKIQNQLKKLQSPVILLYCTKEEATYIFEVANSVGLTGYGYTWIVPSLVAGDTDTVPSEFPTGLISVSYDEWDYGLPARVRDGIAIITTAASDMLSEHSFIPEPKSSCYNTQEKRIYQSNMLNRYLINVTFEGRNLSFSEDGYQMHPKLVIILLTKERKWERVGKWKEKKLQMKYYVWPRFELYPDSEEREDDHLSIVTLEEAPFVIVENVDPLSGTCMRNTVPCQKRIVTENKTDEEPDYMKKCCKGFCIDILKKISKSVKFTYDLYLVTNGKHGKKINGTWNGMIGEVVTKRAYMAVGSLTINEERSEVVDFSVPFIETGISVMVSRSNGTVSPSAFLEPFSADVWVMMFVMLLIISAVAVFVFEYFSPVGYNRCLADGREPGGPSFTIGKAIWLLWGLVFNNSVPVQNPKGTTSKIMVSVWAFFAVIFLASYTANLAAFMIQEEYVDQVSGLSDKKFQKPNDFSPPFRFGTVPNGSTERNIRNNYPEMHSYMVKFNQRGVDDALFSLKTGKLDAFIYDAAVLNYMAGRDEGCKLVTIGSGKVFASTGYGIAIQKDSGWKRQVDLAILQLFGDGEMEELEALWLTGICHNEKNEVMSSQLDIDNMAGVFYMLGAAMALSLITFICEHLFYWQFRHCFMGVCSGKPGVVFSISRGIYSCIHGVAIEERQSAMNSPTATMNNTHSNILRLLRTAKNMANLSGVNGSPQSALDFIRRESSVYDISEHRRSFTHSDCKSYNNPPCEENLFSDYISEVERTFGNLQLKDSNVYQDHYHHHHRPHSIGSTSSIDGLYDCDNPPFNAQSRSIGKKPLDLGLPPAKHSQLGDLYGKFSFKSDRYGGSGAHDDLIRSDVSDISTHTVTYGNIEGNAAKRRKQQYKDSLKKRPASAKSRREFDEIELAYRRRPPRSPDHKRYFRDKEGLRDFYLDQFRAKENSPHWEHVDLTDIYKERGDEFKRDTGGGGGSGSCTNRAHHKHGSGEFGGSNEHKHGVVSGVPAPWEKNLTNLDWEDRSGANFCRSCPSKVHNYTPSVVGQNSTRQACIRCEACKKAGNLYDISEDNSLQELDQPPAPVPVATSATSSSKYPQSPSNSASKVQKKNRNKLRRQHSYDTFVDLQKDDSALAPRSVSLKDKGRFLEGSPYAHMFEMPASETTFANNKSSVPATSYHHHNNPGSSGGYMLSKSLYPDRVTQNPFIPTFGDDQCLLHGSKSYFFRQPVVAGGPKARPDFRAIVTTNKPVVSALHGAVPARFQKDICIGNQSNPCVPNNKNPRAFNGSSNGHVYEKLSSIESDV

Row | Emax [2, 5] [%] | Structure (SMILES) | IC50 [1] [nM] | IC50 [2, 4] [nM] | calcium influx blocked [2, 5] | EC50 [2] [nM] | IC50 [3] [nM] | Emax [2] [%] | IC50 ([2]; chicken forebrain culture calcium influx assay, read-out: IC50 value) [nM]
1 | – | Cc1nccn1Cc1cc(-c2ccc(F)c(C(F)F)c2)cnn1.Cl.Cl [EVT‐101] | 12 ± 0.2 | 22 ± 8 | approximately 70% | 22 ± 8 | – | – | –
2 | ~70 | OC(CN1CCC(Cc2ccc(F)cc2)CC1)c1ccc(Cl)cc1 (stereo not shown) [Eliprodil, eliprodil] | 780 ± 90 | 1260 ± 683 | – | 1300 ± 700 | 930 ± 140 | – | –
3 | – | CC(C(O)c1ccc(O)cc1)N1CCC(Cc2ccccc2)CC1 (stereo not shown) [Ifenprodil, ifenprodil] | 110 ± 10 | 103 ± 39 | – | 100 ± 40 | 130 ± 10 | ~70 | –
4 | – | COc1cc2c(cc1O)C(CCc1ccc(Cl)cc1)N(C)CC2 (stereo not shown) [Ro 04‐5595] | – | 186 ± 35 | – | 186 ± 32 | – | – | < 200
5 | – | C[C@@H]([C@H](O)c1ccc(O)cc1)N1CCC(Cc2ccccc2)CC1 [Ro 25‐6981] | 42 ± 6 | 60 ± 27 | approximately 70% | 60 ± 30 | 49 ± 8 | – | –
